Results taken from PMC11934087, “Rational Design of Stapled Covalent Peptide Modifiers of Oncoprotein E6 from Human Papillomavirus” (ACS Chemical Biology, 2025).
Values joined by “and” are separate entries in the source; they are usually repeats but may differ in a detail not shown here. Equal entries are not always repeated. Where two headings read alike, the source gives them in different places. Where a SMILES comes first, the peptide text is derived from it. Bridges are numbered along the chain shown (N, C = ends). Where no end group is shown, it is not given here. [ ]: non-standard residue; d: D form. The star is where a group is joined. 5FAM = O=C1OC2(c3ccc(O)cc3Oc3cc(O)ccc32)c2ccc(C(=O)*)cc21; R8 = C=CCCCCCC[C@@](C)(N)C(=O)O; S5 = C=CCCC[C@](C)(N)C(=O)O; Dap = NC[C@H](N)C(=O)O; Acryloyl = C=CC(=O)*; BrAc = O=C(CBr)*; ClAc = O=C(CCl)*; βAla = NCCC(=O)O

Tests used:
[1] = Glutathione reactivity assay (HPLC time course)
Protocol: To evaluate the reactivity toward off-target thiols, the acrylamide, bromoacetamide, and chloroacetamide covalent peptides were exposed to glutathione (10 equiv) in an HPLC time course assay over 96 h (Figure 4A). Here, a set of nonfluorescent peptides (2b, 3b, and 4b) were synthesized with an N-terminal tryptophan for quantification through absorbance measurements. Glutathione is the most abundant thiol in human cells,[40] and time point measurements were obtained by quenching reactions with cold acetonitrile containing TFA (0.1%) and 5-carboxyfluorescein as an internal standard.
Covalent peptides (100 μM) were diluted from 10 mM DMSO stock solutions (1% final DMSO content) and incubated in buffer (500 μL total volume; 50 mM Tris, 200 mM NaCl) with glutathione (10 equiv, 1 mM) at 37 °C. To quench the reaction, 10 μL of the reaction mixture was added to 100 μL of cold acetonitrile containing 0.1% TFA [v/v] and 10 μM fluorescein, included as an internal standard. Reaction mixtures were first analyzed by LCMS after 1 h of incubation to assign the glutathione adduct peak by comparison to mixtures quenched immediately following peptide addition. […] The AUC of the reacted covalent peptide was normalized to the AUC of the fluorescein standard. These values were plotted and fitted with nonlinear regression using GraphPad Prism software.

[2] = Off-target reactivity with DTT; type: physicochemical; conditions: DTT 1 mM
[3] = biological target: T1, GST-E6 (GST-tagged HPV16 E6 protein) (Human papillomavirus type 16, UniProt P03126); assay: Noncompetitive fluorescence polarization (FP) binding assay; design: species or system Human Papillomavirus (HPV-16)
T1 construct: host or cells: E. coli BL21
Protocol: An N-terminal carboxyfluorescein was included for FP analysis of binding affinity for both the natural backbone and the stapled peptides.
For noncompetitive FP experiments, varying concentrations of GST-E6 protein (38 μM; 10 point 2-fold serial dilution) were incubated with 30 nM fluorescently labeled peptides in buffer (10 μL total volume; 50 mM Tris, 200 mM NaCl, 1 mM DTT, 0.1% [v/v] Trition X-100) in black 384-well plates. For competitive FP experiments, 100 nM GST-E6 was incubated with 30 nM fluorescently labeled noncovalent peptide and varying concentrations (20 μM; 3-fold serial dilution) of covalent peptide in buffer (20 μL) with a final DMSO content of 0.5% [v/v]. Negative control (polarization reference; 30 nM fluorescent peptide, no protein) and blank reference (buffer alone) were included in triplicate for G-factor calibration. Sample plates were centrifuged (1 min, 500g) and incubated for 30 min at RT. Following incubation, FP at equilibrium was measured on a Tecan M1000 microplate reader (ex = 470 nm, em = 525; gain optimized, 200 flashes, 300 ms settle time, G-factor reference value 30 mP). Measured polarizations were fitted to a sigmoidal dose–response curve using GraphPad Prism software to generate KD values.

bovine α-chymotrypsin = bovine α-chymotrypsin (Bos taurus, UniProt P00766); assay: in vitro; conditions: 50 μM peptide, 50 nM bovine α-chymotrypsin, pH 7.5, room temp, HPLC
Protocol: Chymotrypsin was chosen due to its substrate selectivity for peptides containing hydrophobic side chains, including leucine, making the LxxLL motif a well-suited substrate for proteolytic cleavage by this protease.[54]
For each time point, a 50 μL aliquot was removed from the reaction mixture and quenched with 40 μL of 0.5% [v/v] trifluoroacetic acid in acetonitrile. Quenched samples were subsequently analyzed by analytical reverse-phase HPLC, and the remaining undigested peptide was quantified by integration of AUC. A plot of percent peptide remaining vs time was fit to a one-phase exponential decay to calculate half-life using GraphPad Prism software.

[4] = biological target: T1, GST-E6 (GST-tagged HPV16 E6 protein); assay: Competitive fluorescence polarization assay against a fluorescent E6 peptide ligand; type: binding, Human Papillomavirus (HPV-16)
Protocol: Next, covalent inhibition was evaluated by using a competitive FP assay. Recombinant GST-E6 was pre-incubated with a fluorescently labeled ligand for 30 min before addition of varying concentrations of the non-fluorescent covalent peptides (Figure 4B). Fluorophore polarization is greatest when the ligand is bound to its target, and consequently, a displacement of the ligand by the covalent peptide results in a decrease in polarization.[41],[42] The formation of a covalent bond between the peptide inhibitor and the C58 residue within E6 is expected to occur more slowly than noncovalent binding, permitting characterization of the affinity of the peptides 2b, 3b, and 4b.[41] […]
For noncompetitive FP experiments, varying concentrations of GST-E6 protein (38 μM; 10 point 2-fold serial dilution) were incubated with 30 nM fluorescently labeled peptides in buffer (10 μL total volume; 50 mM Tris, 200 mM NaCl, 1 mM DTT, 0.1% [v/v] Trition X-100) in black 384-well plates. […] Following incubation, FP at equilibrium was measured on a Tecan M1000 microplate reader (ex = 470 nm, em = 525; gain optimized, 200 flashes, 300 ms settle time, G-factor reference value 30 mP). Measured polarizations were fitted to a sigmoidal dose–response curve using GraphPad Prism software to generate KD values.

[5] = biological target: T2, Glutathione S-transferase (GST) tagged HPV-16 E6 (Human papillomavirus type 16 (HPV-16), UniProt P03126 1-158); assay: fluorescence polarisation; GST-E6 titrated (from 38 μM, 10 point 2-fold serial dilution) against 30 nM fluorescent peptide; 50 mM Tris, 200 mM NaCl, 1 mM DTT, 0.1% Triton X-100; 30 min at RT; sigmoidal dose-response fit; conditions: both partners purified
T2 construct: Oncoprotein E6 of human papillomavirus type 16; GST fusion printed as 47 kDa; also called GST-E6; E6-GST; source: E. coli BL21, purified (glutathione agarose)

[6] = biological target: T2, Glutathione S-transferase (GST) tagged …; assay: fluorescence polarisation; conditions: both partners purified

T2 sequence (P03126 whole entry, the tested form may be a part): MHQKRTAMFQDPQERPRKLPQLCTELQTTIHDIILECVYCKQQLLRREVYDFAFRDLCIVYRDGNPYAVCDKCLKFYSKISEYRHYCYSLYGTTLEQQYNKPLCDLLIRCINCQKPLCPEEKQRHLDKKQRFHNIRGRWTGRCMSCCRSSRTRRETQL
T1 sequence (P03126 whole entry): as the sequence (P03126 whole entry, the tested form may be a part) above

CC(=O)N[C@@H](Cc1c[nH]c2ccccc12)C(=O)NCCC(=O)N[C@@H](C)C(=O)N[C@@H](C)C(=O)N[C@@H](C)C(=O)N[C@@H](CCC(=O)O)C(=O)N[C@@H](CC(C)C)C(=O)N[C@H](C(=O)N[C@@H](CC(C)C)C(=O)N[C@@H](CCC(N)=O)C(=O)N[C@@H](CCC(=O)O)C(=O)N[C@@H](CC(C)C)C(=O)N[C@@H](CC(C)C)C(=O)N[C@@H](CNC(=O)CBr)C(N)=O)[C@@H](C)O [3b] (Ac-W[βAla]AAAELTLQELL[Dap](BrAc)-NH2)
t1/2 of reaction with glutathione ([1]; 100 μM peptide, glutathione 10 equiv (1 mM), 50 mM Tris, 200 mM NaCl, 1% DMSO, 37 °C, HPLC 280 nm, GSH adduct peak area, n = 3): 0.142 h | half-life of off-target reaction with DTT [2]: 2.1 min

CC(C)C[C@H](NC(=O)[C@H](CC(C)C)NC(=O)[C@]1(C)CCCC=CCCC[C@](C)(NC(=O)[C@H](CCC(=O)O)NC(=O)[C@H](C)NC(=O)[C@H](C)NC(=O)[C@H](C)NC(=O)CCNC(=O)c2ccc3c(c2)C(=O)OC32c3ccc(O)cc3Oc3cc(O)ccc32)C(=O)N[C@@H]([C@@H](C)O)C(=O)N[C@@H](CC(C)C)C(=O)N[C@@H](CCC(N)=O)C(=O)N1)C(=O)NCC(N)=O [compound 7] ({5FAM-βAla}-AAAE[S5]TLQ[S5]LLG-NH2; staple 5-9)
Kd [3]: 3000 nM

CC(C)C[C@H](NC(=O)[C@H](CC(C)C)NC(=O)[C@H](CCC(=O)O)NC(=O)[C@]1(C)CCCC=CCCCCCC[C@@](C)(NC(=O)CCNC(=O)c2ccc3c(c2)C(=O)OC32c3ccc(O)cc3Oc3cc(O)ccc32)C(=O)N[C@@H](C)C(=O)N[C@@H](C)C(=O)N[C@@H](CCC(=O)O)C(=O)N[C@@H](CC(C)C)C(=O)N[C@@H]([C@@H](C)O)C(=O)N[C@@H](CC(C)C)C(=O)N1)C(=O)NCC(N)=O [compound 9] ({5FAM-βAla}-[R8]AAELTL[S5]ELLG-NH2; staple 1-8)
degradation by chymotrypsin within 4 h (bovine α-chymotrypsin; 4 h): no degradation | degradation by chymotrypsin on continued incubation up to 16 h (bovine α-chymotrypsin; up to 16 h): no significant degradation | Kd [3]: 430 nM and < 1000 nM

C=CC(=O)NC[C@H](NC(=O)[C@H](CC(C)C)NC(=O)[C@H](CC(C)C)NC(=O)[C@H](CCC(=O)O)NC(=O)[C@H](CCC(N)=O)NC(=O)[C@H](CC(C)C)NC(=O)[C@@H](NC(=O)[C@H](CC(C)C)NC(=O)[C@H](CCC(=O)O)NC(=O)[C@H](C)NC(=O)[C@H](C)NC(=O)[C@H](C)NC(=O)CCNC(=O)[C@H](Cc1c[nH]c2ccccc12)NC(C)=O)[C@@H](C)O)C(N)=O [2b] (Ac-W[βAla]AAAELTLQELL[Dap](Acryloyl)-NH2)
t1/2 of reaction with glutathione [1]: 10.3 h

CC(=O)N[C@@H](Cc1c[nH]c2ccccc12)C(=O)NCCC(=O)N[C@@H](C)C(=O)N[C@@H](C)C(=O)N[C@@H](C)C(=O)N[C@@H](CCC(=O)O)C(=O)N[C@@H](CC(C)C)C(=O)N[C@H](C(=O)N[C@@H](CC(C)C)C(=O)N[C@@H](CCC(N)=O)C(=O)N[C@@H](CCC(=O)O)C(=O)N[C@@H](CC(C)C)C(=O)N[C@@H](CC(C)C)C(=O)N[C@@H](CNC(=O)CCl)C(N)=O)[C@@H](C)O [4b] (Ac-W[βAla]AAAELTLQELL[Dap](ClAc)-NH2)
t1/2 of reaction with glutathione ([1]; 100 μM peptide, glutathione 10 equiv (1 mM), 50 mM Tris, 200 mM NaCl, 1% DMSO, 37 °C, up to 96 h, HPLC 280 nm, GSH adduct peak area, n = 3): 7.0 h | EC50 [4]: 40 nM

CC(C)C[C@H](NC(=O)[C@H](CC(C)C)NC(=O)[C@]1(C)CCCC=CCCCCCC[C@@](C)(NC(=O)[C@H](C)NC(=O)CCNC(=O)c2ccc3c(c2)C(=O)OC32c3ccc(O)cc3Oc3cc(O)ccc32)C(=O)N[C@@H](C)C(=O)N[C@@H](CCC(=O)O)C(=O)N[C@@H](CC(C)C)C(=O)N[C@@H]([C@@H](C)O)C(=O)N[C@@H](CC(C)C)C(=O)N[C@@H](CCC(N)=O)C(=O)N1)C(=O)NCC(N)=O [compound 10] ({5FAM-βAla}-A[R8]AELTLQ[S5]LLG-NH2; staple 2-9)
Kd [3]: > 38000 nM

CC(C)C[C@H](NC(=O)[C@H](CC(C)C)NC(=O)[C@H](CCC(=O)O)NC(=O)[C@H](CCC(N)=O)NC(=O)[C@H](CC(C)C)NC(=O)[C@@H](NC(=O)[C@]1(C)CCCC=CCCC[C@](C)(NC(=O)CCNC(=O)c2ccc3c(c2)C(=O)OC32c3ccc(O)cc3Oc3cc(O)ccc32)C(=O)N[C@@H](C)C(=O)N[C@@H](C)C(=O)N[C@@H](CCC(=O)O)C(=O)N1)[C@@H](C)O)C(=O)NCC(N)=O [compound 5] ({5FAM-βAla}-[S5]AAE[S5]TLQELLG-NH2; staple 1-5)
Kd [3]: < 1000 nM

B1: (i, i + 7) stapled peptide 9 (peptide)
chain: {5FAM-βAla}-[R8]AAELTL[S5]ELLG
modifications: staple 1-8
Kd [5]: 431 nM

B2: (i, i + 4) stapled peptide 5 (peptide)
chain: {5FAM-βAla}-[S5]AAE[S5]TLQELLG
modifications: staple 1-5
Kd [5]: 590 nM

B3: (i, i + 4) stapled peptide 7 (peptide)
chain: {5FAM-βAla}-AAAE[S5]TLQ[S5]LLG-NH2
modifications: staple 5-9
SMILES: CC(C)C[C@H](NC(=O)[C@H](CC(C)C)NC(=O)[C@]1(C)CCCC=CCCC[C@](C)(NC(=O)[C@H](CCC(=O)O)NC(=O)[C@H](C)NC(=O)[C@H](C)NC(=O)[C@H](C)NC(=O)CCNC(=O)c2ccc3c(c2)C(=O)OC32c3ccc(O)cc3Oc3cc(O)ccc32)C(=O)N[C@@H]([C@@H](C)O)C(=O)N[C@@H](CC(C)C)C(=O)N[C@@H](CCC(N)=O)C(=O)N1)C(=O)NCC(N)=O
Kd [5]: 3200 nM

B4: (i, i + 4) stapled peptide 8 (peptide)
chain: {5FAM-βAla}-AAAELTL[S5]ELL[S5]-NH2
modifications: staple 8-12
SMILES: CC(C)C[C@@H]1NC(=O)[C@H](CCC(=O)O)NC(=O)[C@@](C)(NC(=O)[C@H](CC(C)C)NC(=O)[C@@H](NC(=O)[C@H](CC(C)C)NC(=O)[C@H](CCC(=O)O)NC(=O)[C@H](C)NC(=O)[C@H](C)NC(=O)[C@H](C)NC(=O)CCNC(=O)c2ccc3c(c2)C(=O)OC32c3ccc(O)cc3Oc3cc(O)ccc32)[C@@H](C)O)CCCC=CCCC[C@@](C)(C(N)=O)NC(=O)[C@H](CC(C)C)NC1=O
Kd [5]: 8000 nM

B5: (i, i + 7) stapled peptide 11 (peptide)
chain: {5FAM-βAla}-AAAE[R8]TLQELL[S5]
modifications: staple 5-12
Kd [5]: 7000 nM

B6: nonfluorescent acrylamide covalent peptide 2b (peptide)
chain: AAAELTLQELL-{Dap(acrylamide)}
modifications: not fully specified (N-terminus)
EC50 [6]: 2070 nM

B7: nonfluorescent bromoacetamide covalent peptide 3b (peptide)
chain: AAAELTLQELL-{Dap(bromoacetamide)}
modifications: not fully specified (N-terminus)
EC50 [6]: 2410 nM
